From patent US12486253B2, “Therapeutics for the degradation of mutant BRAF” (C4 THERAPEUTICS, INC., priority 2021, dated 2025)
Like-named read-outs stand apart in the source and are kept apart here.

Target: BRAF V600E (Homo sapiens, UniProt P15056, V600E)
Assay: HiBiT cellular BRAF^V600E degradation assay
Format: cell-based
Conditions: for DC50: concentration at which 50% of total cellular BRAF^V600E is degraded; for Emax: read-out: HiBit 24 h Emax
[1] = A375.10 cells, 24 h, residual protein remaining in the cell

BRAF V600E, sequence (P15056 whole entry V600E): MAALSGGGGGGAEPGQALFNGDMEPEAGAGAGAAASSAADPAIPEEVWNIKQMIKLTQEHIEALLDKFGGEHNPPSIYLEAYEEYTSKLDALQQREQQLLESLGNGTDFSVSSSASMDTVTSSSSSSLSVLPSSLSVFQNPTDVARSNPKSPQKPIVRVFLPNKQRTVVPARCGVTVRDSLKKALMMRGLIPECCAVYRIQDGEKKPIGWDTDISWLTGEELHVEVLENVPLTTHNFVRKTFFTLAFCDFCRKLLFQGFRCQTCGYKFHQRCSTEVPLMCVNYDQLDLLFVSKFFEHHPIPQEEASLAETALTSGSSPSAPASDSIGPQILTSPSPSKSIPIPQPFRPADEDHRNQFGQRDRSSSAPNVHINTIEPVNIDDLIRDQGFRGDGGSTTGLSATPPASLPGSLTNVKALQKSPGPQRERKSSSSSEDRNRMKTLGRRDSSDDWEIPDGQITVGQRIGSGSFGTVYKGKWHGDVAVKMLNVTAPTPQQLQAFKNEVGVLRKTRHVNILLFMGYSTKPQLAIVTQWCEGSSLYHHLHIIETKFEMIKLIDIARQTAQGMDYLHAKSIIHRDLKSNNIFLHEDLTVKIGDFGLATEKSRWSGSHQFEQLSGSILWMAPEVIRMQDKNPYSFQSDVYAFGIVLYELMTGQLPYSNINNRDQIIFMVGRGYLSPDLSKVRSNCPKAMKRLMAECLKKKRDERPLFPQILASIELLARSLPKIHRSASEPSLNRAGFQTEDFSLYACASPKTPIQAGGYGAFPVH

DC50 (A375.10 cells, 24 h) [nM] | Emax [1] [%] | HiBit 24 h Emax [1] [%] | Compound | Emax [%]
39.4 | 28.2 | – | CCN(C)S(=O)(=O)Nc1ccc(F)c(Oc2ccc3ncc([C@@H]4COC5(CCN(C(=O)CC6(O)CCN(c7cc8c(cc7F)c(N7CCC(=O)NC7=O)nn8C)CC6)CC5)C4)c(OC)c3c2)c1C#N (single isomer, unassigned) [Example 226] | –
15 | – | 9.75 | CCN(C)S(=O)(=O)Nc1ccc(F)c(Oc2ccc3ncn(-c4cnc(N5CCN(C(=O)CN6CCC(c7ccc(NC8CCC(=O)NC8=O)cc7F)CC6)CC5)nc4)c(=O)c3c2N)c1C#N (stereo in doubt) [Example 102, 5-amino-6-[2-cyano-3-[[ethyl(methyl)sulfamoyl]amino]-6-fluorophenoxy]-3-[2-[4-[2-[4-[4-[[(3S)-2,6-dioxopiperidin-3-yl]amino]-2-fluorophenyl]piperidin-1-yl]acetyl]piperazin-1-yl]pyrimidin-5-yl]-4-oxoquinazoline] | –
46.9 | 13.9 | – | CCN(C)S(=O)(=O)Nc1ccc(F)c(Oc2ccc3ncn(CCC4CCN(C(=O)CN5CCC(c6ccc(NC7CCC(=O)NC7=O)cc6F)CC5)CC4)c(=O)c3c2)c1C#N (centres unmarked) [Example 1, 6-[2-cyano-3-[[ethyl(methyl)sulfamoyl]amino]-6-fluorophenoxy]-3-[2-[1-[2-[4-[4-[(2,6-dioxopiperidin-3-yl)amino]-2-fluorophenyl]piperidin-1-yl]acetyl]piperidin-4-yl]ethyl]-4-oxoquinazoline] | –
48.6 | 13.5 | – | CCN(C)S(=O)(=O)Nc1ccc(F)c(Oc2ccc3ncn(CCC4CCN(C(=O)CN5CCC(c6ccc(C7CCC(=O)NC7=O)cc6F)CC5)CC4)c(=O)c3c2)c1C#N (centres unmarked) [Example 2, 6-[2-cyano-3-[[ethyl(methyl)sulfamoyl]amino]-6-fluorophenoxy]-3-[2-[1-[2-[4-[4-(2,6-dioxopiperidin-3-yl)-2-fluorophenyl]piperidin-1-yl]acetyl]piperidin-4-yl]ethyl]-4-oxoquinazoline] | –
28.6 | 10.8 | – | CCN(C)S(=O)(=O)Nc1ccc(F)c(Oc2ccc3ncn(CCCC4CCN(C(=O)CN5CCC(c6ccc(NC7CCC(=O)NC7=O)cc6)CC5)CC4)c(=O)c3c2)c1C#N (centres unmarked) [Example 4, 6-[2-cyano-3-[[ethyl(methyl)sulfamoyl]amino]-6-fluorophenoxy]-3-[3-[1-[2-[4-[4-[(2,6-dioxopiperidin-3-yl)amino]phenyl]piperidin-1-yl]acetyl]piperidin-4-yl]propyl]-4-oxoquinazoline] | –
49.3 | 13.1 | – | CCN(C)S(=O)(=O)Nc1ccc(F)c(Oc2ccc3ncn(CCCC4CCN(C(=O)CN5CCC(c6ccc(C7CCC(=O)NC7=O)cc6F)CC5)CC4)c(=O)c3c2)c1C#N (centres unmarked) [Example 5, 6-[2-cyano-3-[[ethyl(methyl)sulfamoyl]amino]-6-fluorophenoxy]-3-[3-[1-[2-[4-[4-(2,6-dioxopiperidin-3-yl)-2-fluorophenyl]piperidin-1-yl]acetyl]piperidin-4-yl]propyl]-4-oxoquinazoline] | –
22.7 | 11.5 | – | CCN(C)S(=O)(=O)Nc1ccc(F)c(Oc2ccc3ncn(CCCC4CCN(C(=O)CN5CCC(c6ccc(NC7CCC(=O)NC7=O)cc6F)CC5)CC4)c(=O)c3c2)c1C#N (centres unmarked) [Example 6, 6-[2-cyano-3-[[ethyl(methyl)sulfamoyl]amino]-6-fluorophenoxy]-3-[3-[1-[2-[4-[4-[(2,6-dioxopiperidin-3-yl)amino]-2-fluorophenyl]piperidin-1-yl]acetyl]piperidin-4-yl]propyl]-4-oxoquinazoline] | –
42.2 | 15.2 | – | CCN(C)S(=O)(=O)Nc1ccc(F)c(Oc2ccc3ncn(CCCC4CCN(CC(=O)N5CCC(c6ccc(NC7CCC(=O)NC7=O)cc6)CC5)CC4)c(=O)c3c2)c1C#N (centres unmarked) [Example 7, 6-[2-cyano-3-[[ethyl(methyl)sulfamoyl]amino]-6-fluorophenoxy]-3-[3-[1-[2-[4-[4-[(2,6-dioxopiperidin-3-yl)amino]phenyl]piperidin-1-yl]-2-oxoethyl]piperidin-4-yl]propyl]-4-oxoquinazoline] | –
27.9 | 10 | – | CCN(C)S(=O)(=O)Nc1ccc(F)c(Oc2ccc3ncn(CCN4CCN(C(=O)CN5CCC(c6ccc(NC7CCC(=O)NC7=O)cc6F)CC5)CC4)c(=O)c3c2)c1C#N (centres unmarked) [Example 8, 6-[2-cyano-3-[[ethyl(methyl)sulfamoyl]amino]-6-fluorophenoxy]-3-[2-[4-[2-[4-[4-[(2,6-dioxopiperidin-3-yl)amino]-2-fluorophenyl]piperidin-1-yl]acetyl]piperazin-1-yl]ethyl]-4-oxoquinazoline] | –
41.9 | 9.87 | – | CCN(C)S(=O)(=O)Nc1ccc(F)c(Oc2ccc3ncn(CCN4CCN(C(=O)CN5CCC(c6ccc(NC7CCC(=O)NC7=O)cc6)CC5)CC4)c(=O)c3c2)c1C#N (centres unmarked) [Example 9, 6-[2-cyano-3-[[ethyl(methyl)sulfamoyl]amino]-6-fluorophenoxy]-3-[2-[4-[2-[4-[4-[(2,6-dioxopiperidin-3-yl)amino]phenyl]piperidin-1-yl]acetyl]piperazin-1-yl]ethyl]-4-oxoquinazoline] | –
41.9 | 12.6 | – | CCN(C)S(=O)(=O)Nc1ccc(F)c(Oc2ccc3ncn(C(C)CCC4CCN(C(=O)CN5CCC(c6ccc(NC7CCC(=O)NC7=O)cc6F)CC5)CC4)c(=O)c3c2)c1C#N (centres unmarked) [Example 10, 6-[2-cyano-3-[[ethyl(methyl)sulfamoyl]amino]-6-fluorophenoxy]-3-[4-[1-[2-[4-[4-[(2,6-dioxopiperidin-3-yl)amino]-2-fluorophenyl]piperidin-1-yl]acetyl]piperidin-4-yl]butan-2-yl]-4-oxoquinazoline] | –
10.1 | 9.52 | – | CCN(C)S(=O)(=O)Nc1ccc(F)c(Oc2ccc3ncn(CCC(C)C4CCN(C(=O)CN5CCC(c6ccc(NC7CCC(=O)NC7=O)cc6F)CC5)CC4)c(=O)c3c2)c1C#N (centres unmarked) [Example 11, 6-[2-cyano-3-[[ethyl(methyl)sulfamoyl]amino]-6-fluorophenoxy]-3-[3-[1-[2-[4-[4-[(2,6-dioxopiperidin-3-yl)amino]-2-fluorophenyl]piperidin-1-yl]acetyl]piperidin-4-yl]butyl]-4-oxoquinazoline] | –
29.2 | 8.33 | – | CCN(C)S(=O)(=O)Nc1ccc(F)c(Oc2ccc3ncn(CCCC4(C)CCN(C(=O)CN5CCC(c6ccc(NC7CCC(=O)NC7=O)cc6F)CC5)CC4)c(=O)c3c2)c1C#N (centres unmarked) [Example 12, 6-[2-cyano-3-[[ethyl(methyl)sulfamoyl]amino]-6-fluorophenoxy]-3-[3-[1-[2-[4-[4-[(2,6-dioxopiperidin-3-yl)amino]-2-fluorophenyl]piperidin-1-yl]acetyl]-4-methylpiperidin-4-yl]propyl]-4-oxoquinazoline] | –
26.2 | 8.27 | – | CCN(C)S(=O)(=O)Nc1ccc(F)c(Oc2ccc3ncn(CCC4(F)CCN(C(=O)CN5CCC(c6ccc(NC7CCC(=O)NC7=O)cc6F)CC5)CC4)c(=O)c3c2)c1C#N (centres unmarked) [Example 13, 6-[2-cyano-3-[[ethyl(methyl)sulfamoyl]amino]-6-fluorophenoxy]-3-[2-[1-[2-[4-[4-[(2,6-dioxopiperidin-3-yl)amino]-2-fluorophenyl]piperidin-1-yl]acetyl]-4-fluoropiperidin-4-yl]ethyl]-4-oxoquinazoline] | –
11.1 | 7.29 | – | CCN(C)S(=O)(=O)Nc1ccc(F)c(Oc2ccc3ncn(CCCC4(F)CCN(C(=O)CN5CCC(c6ccc(NC7CCC(=O)NC7=O)cc6F)CC5)CC4)c(=O)c3c2)c1C#N (centres unmarked) [Example 15, 6-[2-cyano-3-[[ethyl(methyl)sulfamoyl]amino]-6-fluorophenoxy]-3-[3-[1-[2-[4-[4-[(2,6-dioxopiperidin-3-yl)amino]-2-fluorophenyl]piperidin-1-yl]acetyl]-4-fluoropiperidin-4-yl]propyl]-4-oxoquinazoline] | –
20.5 | 15.5 | – | CCN(C)S(=O)(=O)Nc1ccc(F)c(Oc2ccc3ncn(-c4cnn(C5CCN(C(=O)CN6CCC(c7ccc(NC8CCC(=O)NC8=O)cc7F)CC6)CC5)c4)c(=O)c3c2)c1C#N (centres unmarked) [Example 16, 6-[2-cyano-3-[[ethyl(methyl)sulfamoyl]amino]-6-fluorophenoxy]-3-[1-[1-[2-[4-[4-[(2,6-dioxopiperidin-3-yl)amino]-2-fluorophenyl]piperidin-1-yl]acetyl]piperidin-4-yl]pyrazol-4-yl]-4-oxoquinazoline] | –
44 | 20.7 | – | CCN(C)S(=O)(=O)Nc1ccc(F)c(Oc2ccc3ncn(-c4cnn(C5CCN(C(=O)CN6CCC(c7ccc(C8CCC(=O)NC8=O)cc7F)CC6)CC5)c4)c(=O)c3c2)c1C#N (centres unmarked) [Example 17, 6-[2-cyano-3-[[ethyl(methyl)sulfamoyl]amino]-6-fluorophenoxy]-3-[1-[1-[2-[4-[4-(2,6-dioxopiperidin-3-yl)-2-fluorophenyl]piperidin-1-yl]acetyl]piperidin-4-yl]pyrazol-4-yl]-4-oxoquinazoline] | –

Compound | DC50 (A375.10 cells, 24 h) [nM] | Emax [1] [%] | HiBit 24 h Emax [1] [%] | Emax [%]
CCN(C)S(=O)(=O)Nc1ccc(F)c(Oc2ccc3ncn(CCC4CCN(C(=O)CN5CCC(c6ccc(NC7CCC(=O)NC7=O)c(F)c6)CC5)CC4)c(=O)c3c2)c1C#N (centres unmarked) [Example 3, 6-[2-cyano-3-[[ethyl(methyl)sulfamoyl]amino]-6-fluorophenoxy]-3-[2-[1-[2-[4-[4-[(2,6-dioxopiperidin-3-yl)amino]-3-fluorophenyl]piperidin-1-yl]acetyl]piperidin-4-yl]ethyl]-4-oxoquinazoline] | 35.9 | – | – | 14.7
CCN(C)S(=O)(=O)Nc1ccc(F)c(Oc2ccc3ncn(CC(C)CC4CCN(C(=O)CN5CCC(c6ccc(NC7CCC(=O)NC7=O)cc6F)CC5)CC4)c(=O)c3c2)c1C#N (centres unmarked) [Example 14, 6-[2-cyano-3-[[ethyl(methyl)sulfamoyl]amino]-6-fluorophenoxy]-3-[3-[1-[2-[4-[4-[(2,6-dioxopiperidin-3-yl)amino]-2-fluorophenyl]piperidin-1-yl]acetyl]piperidin-4-yl]-2-methylpropyl]-4-oxoquinazoline] | 12.5 | – | – | 8.11
